Source: patent publication EP1923473B1, “Bis-diglycolamides (BISDGA) as new extractants for lanthanides [Ln(III)] and actinides [An(III)] from aqueous high-level wastes” (Universidad Autónoma de Madrid, priority 2006, dated 2008)

Experiments:
Type in all cases: physicochemical
[1] = Eu/Am selectivity factor in extraction from 3 mol/L nitric acid; conditions: aqueous [HNO3] 3 mol/L
Description: (§1) 600 µL of the organic phase of the compound to be studied, previously equilibrated, were contacted with 600 µL of aqueous phase consisting of a 3 mol/L nitric acid solution spiked with 600 Bq of ^152Eu and 600 Bq of ^241Am. It was stirred vigorously by means of an oscillating shaker for 30 minutes and the phases were separated by centrifugation at 5000 rpm. 400 µL were taken from each of the phases for determining the concentration of the radionuclides ^152Eu and ^241Am. This determination was carried out by means of the high energy gamma spectrometry technique with a high-purity Ge detector (Canberra Inc.), using the 122 keV line for the determination of ^152Eu concentration and the 59.5 keV line for the determination of ^241Am concentration. The distribution coefficient was calculated by relating the concentration of each of the radionuclides in the organic phase and in the aqueous phase, according to the expression: DM = ([M]org)/([M]aq) [formula]
The Eu/Am selectivity factor was calculated by relating the corresponding distribution coefficients of Eu with those of Am in the same experimental conditions: SFEu/Am = DEu /DAm [formula]
(§2) The distribution coefficients and the selectivity factor of each of them were determined as indicated in sections A) to C).

[2] = Extraction capability from aqueous 3 mol/L nitric acid; conditions: aqueous [HNO3] 3 mol/L spiked with 152Eu(III) and 241Am(III)
Description: The organic solutions of the extractant compounds to be tested were prepared dissolving an amount of the extractant compound in the solvent considered in each case to reach the ligand concentration of 0.1 mol/L. The solvents considered were 1-octanol, n-heptane, n-dodecane, the industrial solvent "TPH" (hydrogenated tetrapropylene) used in the "La Hague" reprocessing plant of the COGEMA company (Compagnie générale des matières nucléaires) and different mixtures "TPH/1-octanol or n-dodecane/1-octanol".
Once said solution was obtained, its equilibration was carried out. To that end, 800 µL of the organic solution of the compound to be studied were contacted with 800 µL of nitric acid of 3 mol/L concentration and it was stirred vigorously in an oscillating shaker for 5 minutes. The phases were separated by centrifugation at 5000 rpm. 800 µL of the said organic phase were again contacted with 800 µL of nitric acid of 3 mol/L concentration for another 5 minutes of vigorous shaking. The phases were separated by centrifugation, the organic phase being considered to be equilibrated.
as §1, §2

[3] = Radiolytic stability, extraction capability after irradiation; conditions: after 1000 kGy; irradiated dissolved in n-dodecane/1-octanol (95:5)%vol, equilibrated with 3 mol/L nitric acid
Description: The tests of stability against irradiation were carried out in the NAYADE facility at CIEMAT site, with external ^60Co sources with an approximate activity of 5000 Ci, with a homogeneous irradiation flux. The dose rate applied in all the experiments was 4 kGy/h and integrated doses of 250 kGy, 500 kGy, 750 kGy and 1000 kGy were considered. The irradiation device consists of a metal cylinder which is introduced in a rack wherein the ^60CO sources are placed radially, such that the irradiation is homogeneous. The irradiation process is carried out submersing the device in a pool of water with a depth of 4 meters.
Irradiation tests of the solid compound (in the absence of solvent) and of the compound dissolved in the "n-dodecane/1-octanol (95:5)%vol" mixture, equilibrated with 3 mol/L nitric acid, were carried out. The organic solutions were prepared and equilibrated as detailed in the previous sections A) and B).
Once each programmed integrated dose was reached, the extraction capability of the organic samples was evaluated as detailed in section C).
The irradiation of compound 4 in solid form (in the absence of solvent) and dissolved at a 0.1 mol/L concentration in the "n-dodecane/1-octanol 1 (95:5)%vol" mixture, equilibrated with 3 mol/L nitric acid, was carried out. The applied dose rate was 4 kGy/h and the considered integrated doses were 250 kGy, 500 kGy, 750 kGy and 1000 kGy. After each integrated dose, the extraction capability of Am(III) and Eu(III) was evaluated as described in section C.
The considered integrated doses in this experiment were 500 kGy and 1000 kGy at a dose rate of 4 kGy/h.

[4] = Third phase formation in extraction from simulated HLLW; conditions: HLLW without oxalic acid and without HEDTA; TODGA 0.2 mol/L
Description: […] Extraction experiments were carried out with said simulated HLLW in a pure form and also adding oxalic acid and HEDTA to it. These complexing agents have shown to be effective in the DIAMEX process for the complexing of Mo, Zr (H2C2O4) and Pd (HEDTA).
The actinides Am (III), Cm (III) and Cf (III) as well as trivalent lanthanides were extracted with high distribution coefficients from HLLW with a 3.2 mol/L nitric acid concentration. […] As expected, Zr and Pd are not co-extracted when complexing agents are added to HLLW.

[5] = 0.1 mol/L in TPH/1-octanol (50:50)%vol

Molecule: 2-Dibutylcarbamoylmethoxy-N-[6-(2-dibutylcarbamoyl-methoxyacetylamino)hexyl]acetamide [Compound 14]
- SFEu/Am [1, 5]: 1.8
- DAm [2, 5]: 119
- DEu [2, 5]: 215

Molecule: CCCCCCCCN(CCCCCCCC)C(=O)COCC(=O)N(CCCCCCCC)CCCCCCCC [TODGA, N,N,N',N'-tetraoctyl diglycolamide, reference compound]
- DAm [3]: 121
- DEu [3]: 458
- third phase [4]: a third phase was observed

Molecule: CCCCCCCCN(CCCCCCCC)C(=O)COCC(=O)NCc1ccc(CNC(=O)COCC(=O)N(CCCCCCCC)CCCCCCCC)cc1 [Compound 8]
- SFEu/Am [1, 5]: 4.1
- DAm [2, 5]: 67
- DEu [2, 5]: 276

Molecule: CCCCN(CCCC)C(=O)COCC(=O)NCCCNC(=O)c1cc(C(C)(C)C)cc2c1Oc1c(C(=O)NCCCNC(=O)COCC(=O)N(CCCC)CCCC)cc(C(C)(C)C)cc1C2(C)C [Compound 19, 2,7-di-tert-butyl-9,9-dimethyl-9H-xanthen-4,5-dicarboxylic acid bis-[[3-(2-dibutylcarbamoylmethoxy-acetylamino)propyl]amide]]
- SFEu/Am [1, 5]: 4.9
- DAm [2, 5]: 65
- DEu [2, 5]: 318

Molecule: CCCCCCCCCCCCOc1cc(CNC(=O)COCC(=O)N(CCCC)CCCC)cc(CNC(=O)COCC(=O)N(CCCC)CCCC)c1 [Compound 11, 2-Di-butylcarbamoylmethoxy-N-[3-[(2-dibutyl-carbamoyl-methoxyacetylamino)methyl]-5-dodecyloxybenzyl]acetamide]
- SFEu/Am [1, 5]: 3.8
- DAm [2, 5]: 88
- DEu [2, 5]: 335

Molecule: 2-Dioctylcarbamoylmethoxy-N-[6-(2-dioctylcarbamoyl-methoxyacetylamino)hexyl]acetamide [Compound 15]
- SFEu/Am ([1]; 0.1 mol/L in 1-octanol): 3.9
- DAm ([2]; 0.1 mol/L in 1-octanol): 25
- DEu ([2]; 0.1 mol/L in 1-octanol): 98

Molecule: CC(C)CCN(CCC(C)C)C(=O)COCC(=O)NCc1cccc(CNC(=O)COCC(=O)N(CCC(C)C)CCC(C)C)c1 [Compound 6, 2-[[Bis(3-methylbutyl)carbamoyl]methoxy]-N-[3-[(2-[[bis-(3-methylbutyl)carbamoyl]methoxy]acetylamino)methyl]-benzyl]-acetamide]
- SFEu/Am [1, 5]: 3.1
- DAm [2, 5]: 82
- DEu [2, 5]: 251

Molecule: CCCCCCCCN(C)C(=O)COCC(=O)NCc1cccc(CNC(=O)COCC(=O)N(C)CCCCCCCC)c1 [Compound 5, 2-[(Methyloctylcarbamoyl)methoxy]-N-[3-[(2-[(methyl-octyl-carbamoyl)methoxy]acetylamino]methyl]benzyl]-acetamide]
- SFEu/Am [1, 5]: 3.7
- DAm [2, 5]: 83
- DEu [2, 5]: 309

Molecule: CCCCN(CCCC)C(=O)COCC(=O)N(CCCC)CCCC [TBDGA, N,N,N',N'-tetrabutyl-3-oxapentane-diamide, reference compound]
- SFEu/Am [1, 5]: 1.4
- DAm [2, 5]: 476
- DEu [2, 5]: 680

Molecule: CCCCCCCCN(CCCCCCCC)C(=O)COCC(=O)N(C)C [DMDODGA, N,N-dimethyl-N',N'-dioctyl-oxapentane-diamide, reference compound]
- SFEu/Am [1, 5]: 1.7
- DAm [2, 5]: 477
- DEu [2, 5]: 789

Molecule: CCCCCC(C)Oc1cc(CNC(=O)COCC(=O)N(CCCC)CCCC)cc(CNC(=O)COCC(=O)N(CCCC)CCCC)c1 (stereo not drawn) [Compound 10, 2-Di-butylcarbamoylmethoxy-N-[3-[(2-dibutyl-carbamoyl-methoxyacetylamino)methyl]-5-(1-methylhexyloxy)benzyl]-acetamide]
- SFEu/Am [1, 5]: 6.7
- DAm [2, 5]: 41
- DEu [2, 5]: 276

Molecule: 2-Dibutylcarbamoylmethoxy-N-[3-[(2-dibutylcarbamoyl-methoxy-acetylamino)methyl]benzyl]acetamide [Compound 3]
- SFEu/Am [1, 5]: 1.9
- DAm [2, 5]: 99
- DEu [2, 5]: 183
